Key:
[1] = system: RAW264.7 murine macrophage cell line, nitric oxide production; experiment: Inhibition of nitric oxide production in LPS-stimulated RAW264.7 macrophages (Griess reaction); isobologram for combinations; assay type: cell-based
Method: (§1) The anti-inflammatory effect of a mixture of Cajanus in combination with glucosamine sulfate was determined in cellular assays by measuring the inhibition of the synthesis of nitric oxide and/or pro-inflammatory prostaglandins (PGE2). PGE2 plays a critical role in the inflammation process, while nitric oxide (NO) is a hallmark of inflammation in various chronic inflammatory diseases including various forms of arthritis, gastro-intestinal diseases and metabolic syndrome X (Creamer P et al 1997 Lancet 350:503-508; Vuolteenaho et al. 2007 Scand. J Rheumatology 36:247-258).
(§2) The effects on the inflammatory response were tested in cellular assays using a murine macrophage cell line, RAW264.7. […]
Concentrations of nitrite were determined by the Griess reaction using sodium nitrite as standard. Briefly, 50 ul of supernatant was mixed with Griess reagent 1 (25 uL) and Griess reagent 2 (25 uL), centrifuged and the optical density at 540 nm determined. PGE2 secreted into the cell culture medium was determined by EIA obtained from Cayman Chemicals (Ann Harbor, Wis., USA) and used according to the manufacturer's instructions. […] IC50 values for LPS-stimulated cells were calculated using a […] least-square fitting equation [y=A+((B−A)/(1+((C−x)̂D))] for best-fit curves (Excel fit software program). […]

[2] = system: RAW264.7 murine macrophage cell line, PGE2 production; experiment: Inhibition of PGE2 synthesis in LPS-stimulated RAW264.7 macrophages (EIA); assay type: cell-based
Method: as §1, §2
Concentrations of nitrite were determined by the Griess reaction using sodium nitrite as standard. Briefly, 50 ul of supernatant was mixed with Griess reagent 1 (25 uL) and Griess reagent 2 (25 uL), centrifuged and the optical density at 540 nm determined. PGE2 secreted into the cell culture medium was determined by EIA obtained from Cayman Chemicals (Ann Harbor, Wis., USA) and used according to the manufacturer's instructions. […] IC50 values for LPS-stimulated cells were calculated using a […] least-square fitting equation [y=A+((B−A)/(1+((C−x)̂D))] for best-fit curves (Excel fit software program).

[3] = Mus musculus, single substances, LPS 1 ug/ml, 24 hours, RAW264.7

N[C@H]1C(O)O[C@H](CO)[C@@H](O)[C@@H]1O.O=S(=O)(O)O (stereo partly shown) [Glucosamine sulfate]
effect on NO production (in words) ([1]; LPS-stimulated RAW264.7): no or only a marginal anti-inflammatory
IC50 [1, 3]: > 100 µg/mL
effect on PGE2 production (in words) ([2]; LPS-stimulated RAW264.7): no or only a marginal anti-inflammatory
IC50 [2, 3]: > 100 µg/mL

Source: patent US20110300240A1, “CAJANUS EXTRACTS AND GLUCOSAMINE FOR INFLAMMATORY DISORDERS” (priority 2009, published 2011)
